In ChEMBL document CHEMBL4334516, “Kinase Chemodiversity from the Arctic: The Breitfussins” (J Med Chem, 2019):
≈ marks a conversion by molar mass, not a printed value.

Tests used:
[1] = molecular target: NUAK family SNF1-like kinase 1 (Homo sapiens) (UniProt O60285); test: Inhibition of NUAK1 (unknown origin) by assessed as residual enzyme activity at 1 uM by [33P]-ATP filter binding kinase assay relative to control
[2] = molecular target: Serine/threonine-protein kinase 36 (Homo sapiens, UniProt Q9NRP7); test: Binding affinity to wild-type human partial length STK36 (M1 to T271 residues) expressed in bacterial expression system by active-site directed competition binding assay based Kinomescan method
[3] = Toxicity in zebrafish embryos assessed as induction of heart edema by measuring unaffected embryos level at 1.4 uM after 72 hrs (reference value: 100%); type: tissue-based, Danio rerio; conditions: in vivo
[4] = Toxicity in zebrafish embryos assessed as induction of scoliosis by measuring unaffected embryos level at 14 uM after 72 hrs (reference value: 100%); parameters: species or system Danio rerio; conditions: in vivo
[5] = Toxicity in zebrafish embryos assessed as induction of scoliosis by measuring unaffected embryos level at 0.1 uM after 72 hrs (reference value: 100%); parameters: species or system Danio rerio; conditions: in vivo
[6] = molecular target: T1, Mitogen-activated protein kinase kinase kinase 7 (Homo sapiens) (UniProt O43318); test: Binding affinity to wild-type human partial length TAK1 (M1 to Q303 residues) expressed in mammalian expression system assessed as residual binding level at 10 uM by active-site directed competition binding assay based Kinomescan method relative to control
T1 sequence (whole entry): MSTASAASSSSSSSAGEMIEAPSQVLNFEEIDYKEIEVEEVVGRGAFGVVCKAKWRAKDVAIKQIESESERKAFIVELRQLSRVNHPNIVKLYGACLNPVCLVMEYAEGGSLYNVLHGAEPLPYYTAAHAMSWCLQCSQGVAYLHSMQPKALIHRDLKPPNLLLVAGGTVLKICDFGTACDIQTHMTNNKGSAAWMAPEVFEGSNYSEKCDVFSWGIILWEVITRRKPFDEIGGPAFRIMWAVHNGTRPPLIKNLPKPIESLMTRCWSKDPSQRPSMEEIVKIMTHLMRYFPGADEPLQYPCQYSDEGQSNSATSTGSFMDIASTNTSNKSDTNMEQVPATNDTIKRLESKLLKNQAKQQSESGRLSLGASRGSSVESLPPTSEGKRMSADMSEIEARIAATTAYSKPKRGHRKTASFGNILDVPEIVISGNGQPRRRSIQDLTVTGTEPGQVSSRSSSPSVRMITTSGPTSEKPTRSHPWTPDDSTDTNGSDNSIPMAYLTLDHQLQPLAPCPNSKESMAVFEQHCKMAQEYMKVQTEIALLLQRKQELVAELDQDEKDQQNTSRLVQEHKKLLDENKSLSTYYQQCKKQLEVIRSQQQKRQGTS

PLC-PRF-5 = test: Cytotoxicity in human PLC/PRF/5 cells assessed as reduction in cell viability incubated for 72 hrs by SRB assay; conditions: PLC-PRF-5, 72 h
[7] = Kinetic solubility in pH 7.4 aqueous buffer at 500 uM by spectrophotometry; type: physicochemical; conditions: read-out: Kinetic_solubility
[8] = Toxicity in zebrafish embryos at 0.1 to 1396 uM after 72 hrs; parameters: species or system Danio rerio; conditions: in vivo, read-out: LD50
[9] = Toxicity in zebrafish embryos assessed as induction of general edema by measuring unaffected embryos level at 14 uM after 72 hrs (reference value: 100%); parameters: species or system Danio rerio; conditions: in vivo
[10] = Toxicity in zebrafish embryos assessed as induction of tail degeneration by measuring unaffected embryos level at 0.1 uM after 72 hrs (reference value: 100%); type: tissue-based, Danio rerio; conditions: in vivo
[11] = Toxicity in zebrafish embryos assessed as survival at 0.1 uM after 72 hrs (reference value: 95%); parameters: species or system Danio rerio; conditions: in vivo
Aurora kinase B = Aurora kinase B (Homo sapiens, UniProt Q96GD4); test: Inhibition of Aurora B (unknown origin) assessed as residual enzyme activity at 50 uM by [33P]-ATP filter binding kinase assay relative to control
[12] = molecular target: Aurora kinase A (Homo sapiens) (UniProt O14965); test: Binding affinity to wild-type human partial length AURKA (E122 to K401 residues) expressed in mammalian expression system assessed as residual binding level at 10 uM by active-site directed competition binding assay based Kinomescan method relative to control
[13] = molecular target: Mitogen-activated protein kinase 15 (Homo sapiens) (UniProt Q8TD08); test: Binding affinity to wild-type human partial length ERK8 (M1 to P437 residues) expressed in bacterial expression system assessed as residual binding level at 10 uM by active-site directed competition binding assay based Kinomescan method relative to control
MCF7 = test: Cytotoxicity in human MCF7 cells assessed as reduction in cell viability incubated for 72 hrs by SRB assay; conditions: MCF7, 72 h
MDA-MB-468 = test: Cytotoxicity in human MDA-MB-468 cells assessed as reduction in cell viability incubated for 72 hrs by SRB assay; conditions: MDA-MB-468, 72 h
[14] = Toxicity in zebrafish embryos assessed as induction of tail degeneration by measuring unaffected embryos level at 1.4 uM after 72 hrs (reference value: 100%); type: tissue-based, Danio rerio; conditions: in vivo
[15] = molecular target: Serine/threonine-protein kinase pim-3 (Homo sapiens, UniProt Q86V86); test: Binding affinity to wild-type human partial length PIM3 (G16 to A317 residues) expressed in bacterial expression system assessed as residual binding level at 10 uM by active-site directed competition binding assay based Kinomescan method relative to control
[16] = Toxicity in zebrafish embryos assessed as induction of general edema by measuring unaffected embryos level at 0.1 uM after 72 hrs (reference value: 100%); parameters: species or system Danio rerio; conditions: in vivo
[17] = molecular target: Mitogen-activated protein kinase kinase kinase 11 (Homo sapiens, UniProt Q16584); test: Inhibition of MLK3 (unknown origin) assessed as residual enzyme activity at 1 uM by [33P]-ATP filter binding kinase assay relative to control
[18] = Toxicity in zebrafish embryos assessed as induction of necrosis by measuring unaffected embryos level at 0.1 uM after 72 hrs (reference value: 100%); parameters: species or system Danio rerio; conditions: in vivo
[19] = molecular target: Serine/threonine-protein kinase 17B (Homo sapiens) (UniProt O94768); test: Binding affinity to wild-type human full length DRAK2 (M1 to C372 residues) expressed in bacterial expression system assessed as residual binding level at 10 uM by active-site directed competition binding assay based Kinomescan method relative to control
BT-20 = test: Cytotoxicity in human BT20 cells assessed as reduction in cell viability incubated for 72 hrs by SRB assay; conditions: BT-20, 72 h
[20] = molecular target: Casein kinase I isoform epsilon (Homo sapiens, UniProt P49674); test: Binding affinity to wild-type human full length CSNK1E (M1 to K416 residues) expressed in bacterial expression system by active-site directed competition binding assay based Kinomescan method
[21] = Stability in mouse plasma assessed as parent compound remaining level at 5 uM incubated for 1 hr by LC-MS analysis; type: ADME, cell-free; conditions: read-out: Stability
[22] = molecular target: Mitogen-activated protein kinase kinase kinase 9 (Homo sapiens, UniProt P80192); test: Inhibition of MLK1 (unknown origin) assessed as residual enzyme activity at 1 uM by [33P]-ATP filter binding kinase assay relative to control
[23] = Toxicity in zebrafish embryos assessed as survival at 14 uM after 72 hrs (reference value: 95%); parameters: species or system Danio rerio; conditions: in vivo

NUAK family SNF1-like kinase 1 (Homo sapiens), sequence (O60285 whole entry, the tested form may be a part): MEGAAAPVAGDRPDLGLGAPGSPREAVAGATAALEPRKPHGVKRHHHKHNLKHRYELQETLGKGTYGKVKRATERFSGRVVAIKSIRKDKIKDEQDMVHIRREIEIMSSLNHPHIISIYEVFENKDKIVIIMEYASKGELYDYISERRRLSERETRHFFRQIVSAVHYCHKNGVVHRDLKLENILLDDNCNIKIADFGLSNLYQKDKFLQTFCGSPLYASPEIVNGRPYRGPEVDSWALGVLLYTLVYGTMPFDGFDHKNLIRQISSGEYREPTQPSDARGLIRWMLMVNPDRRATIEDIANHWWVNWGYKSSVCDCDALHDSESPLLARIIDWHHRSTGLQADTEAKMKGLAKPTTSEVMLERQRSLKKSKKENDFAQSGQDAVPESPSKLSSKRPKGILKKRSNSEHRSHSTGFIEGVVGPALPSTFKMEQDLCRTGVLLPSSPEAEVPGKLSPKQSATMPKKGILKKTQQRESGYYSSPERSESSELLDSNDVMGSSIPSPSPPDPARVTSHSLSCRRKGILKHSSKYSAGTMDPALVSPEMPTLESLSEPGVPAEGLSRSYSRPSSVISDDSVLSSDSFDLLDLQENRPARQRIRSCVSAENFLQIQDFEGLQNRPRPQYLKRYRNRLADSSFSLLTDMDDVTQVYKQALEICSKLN
Serine/threonine-protein kinase 36, sequence (Q9NRP7 whole entry, the tested form may be a part): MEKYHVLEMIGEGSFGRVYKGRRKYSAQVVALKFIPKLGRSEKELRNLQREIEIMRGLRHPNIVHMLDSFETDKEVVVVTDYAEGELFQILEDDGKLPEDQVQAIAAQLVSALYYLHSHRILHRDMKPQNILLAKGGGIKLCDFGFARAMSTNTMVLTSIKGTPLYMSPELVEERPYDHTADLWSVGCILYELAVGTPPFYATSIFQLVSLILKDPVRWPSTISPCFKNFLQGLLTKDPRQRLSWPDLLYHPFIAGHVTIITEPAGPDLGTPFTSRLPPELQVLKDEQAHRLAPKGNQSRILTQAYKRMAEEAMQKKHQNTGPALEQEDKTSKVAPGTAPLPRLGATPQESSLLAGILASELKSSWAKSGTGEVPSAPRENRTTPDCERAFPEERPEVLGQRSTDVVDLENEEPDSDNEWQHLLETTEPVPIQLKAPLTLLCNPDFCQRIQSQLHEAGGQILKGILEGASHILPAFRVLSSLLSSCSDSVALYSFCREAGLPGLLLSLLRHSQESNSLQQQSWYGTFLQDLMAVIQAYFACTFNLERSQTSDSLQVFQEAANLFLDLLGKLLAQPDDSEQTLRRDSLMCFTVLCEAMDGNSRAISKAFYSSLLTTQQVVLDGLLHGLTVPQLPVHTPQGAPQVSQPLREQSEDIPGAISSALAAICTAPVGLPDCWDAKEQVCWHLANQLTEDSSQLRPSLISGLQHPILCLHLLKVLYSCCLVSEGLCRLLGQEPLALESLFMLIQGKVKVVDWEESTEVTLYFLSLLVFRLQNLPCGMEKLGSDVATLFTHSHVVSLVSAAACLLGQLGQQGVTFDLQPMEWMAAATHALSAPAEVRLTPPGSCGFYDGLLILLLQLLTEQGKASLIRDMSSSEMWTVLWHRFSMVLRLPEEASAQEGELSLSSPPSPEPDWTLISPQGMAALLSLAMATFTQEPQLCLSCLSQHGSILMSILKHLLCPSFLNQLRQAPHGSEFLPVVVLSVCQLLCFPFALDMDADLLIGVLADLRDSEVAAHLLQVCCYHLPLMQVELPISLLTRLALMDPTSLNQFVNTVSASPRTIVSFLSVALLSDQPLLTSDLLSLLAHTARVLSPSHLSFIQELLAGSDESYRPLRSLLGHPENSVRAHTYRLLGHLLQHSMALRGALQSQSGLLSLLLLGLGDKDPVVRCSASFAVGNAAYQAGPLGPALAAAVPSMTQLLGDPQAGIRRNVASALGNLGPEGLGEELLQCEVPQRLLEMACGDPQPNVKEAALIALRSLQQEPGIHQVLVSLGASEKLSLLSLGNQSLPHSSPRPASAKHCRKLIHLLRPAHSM
Serine/threonine-protein kinase 17B (Homo sapiens), sequence (O94768 whole entry, the tested form may be a part): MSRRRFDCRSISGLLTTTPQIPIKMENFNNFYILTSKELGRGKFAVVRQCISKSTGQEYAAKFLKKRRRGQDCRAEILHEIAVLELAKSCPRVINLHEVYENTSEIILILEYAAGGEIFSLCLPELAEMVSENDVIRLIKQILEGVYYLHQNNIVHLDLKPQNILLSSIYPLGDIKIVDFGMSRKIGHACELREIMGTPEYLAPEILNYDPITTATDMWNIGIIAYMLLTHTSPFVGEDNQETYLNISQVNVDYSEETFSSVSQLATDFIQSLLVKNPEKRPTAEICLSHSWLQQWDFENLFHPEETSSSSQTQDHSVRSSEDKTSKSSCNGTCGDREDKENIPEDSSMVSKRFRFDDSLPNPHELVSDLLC
Mitogen-activated protein kinase kinase kinase 11, sequence (Q16584 whole entry, looked up): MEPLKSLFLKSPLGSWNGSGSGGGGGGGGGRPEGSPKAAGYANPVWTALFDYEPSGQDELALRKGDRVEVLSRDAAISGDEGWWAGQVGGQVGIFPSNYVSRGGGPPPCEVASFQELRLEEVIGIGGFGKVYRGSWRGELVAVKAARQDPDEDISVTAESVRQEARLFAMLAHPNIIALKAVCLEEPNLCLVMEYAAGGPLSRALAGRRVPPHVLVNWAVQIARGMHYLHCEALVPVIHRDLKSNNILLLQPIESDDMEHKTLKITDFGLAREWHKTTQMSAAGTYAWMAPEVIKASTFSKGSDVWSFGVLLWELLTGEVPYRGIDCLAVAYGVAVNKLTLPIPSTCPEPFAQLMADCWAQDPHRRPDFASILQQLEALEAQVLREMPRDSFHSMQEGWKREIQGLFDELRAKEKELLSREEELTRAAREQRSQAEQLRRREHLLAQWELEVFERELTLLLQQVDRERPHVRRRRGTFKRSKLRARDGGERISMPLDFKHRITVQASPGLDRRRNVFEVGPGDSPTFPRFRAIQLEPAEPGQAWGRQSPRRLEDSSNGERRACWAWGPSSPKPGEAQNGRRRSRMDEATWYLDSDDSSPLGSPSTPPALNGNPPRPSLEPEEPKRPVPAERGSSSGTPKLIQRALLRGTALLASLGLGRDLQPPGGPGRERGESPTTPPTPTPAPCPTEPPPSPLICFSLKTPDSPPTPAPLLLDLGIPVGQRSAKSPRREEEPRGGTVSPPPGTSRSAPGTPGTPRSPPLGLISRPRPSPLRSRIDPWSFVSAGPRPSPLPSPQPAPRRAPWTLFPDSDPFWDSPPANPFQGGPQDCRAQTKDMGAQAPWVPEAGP
Mitogen-activated protein kinase kinase kinase 9, sequence (P80192 whole entry, looked up): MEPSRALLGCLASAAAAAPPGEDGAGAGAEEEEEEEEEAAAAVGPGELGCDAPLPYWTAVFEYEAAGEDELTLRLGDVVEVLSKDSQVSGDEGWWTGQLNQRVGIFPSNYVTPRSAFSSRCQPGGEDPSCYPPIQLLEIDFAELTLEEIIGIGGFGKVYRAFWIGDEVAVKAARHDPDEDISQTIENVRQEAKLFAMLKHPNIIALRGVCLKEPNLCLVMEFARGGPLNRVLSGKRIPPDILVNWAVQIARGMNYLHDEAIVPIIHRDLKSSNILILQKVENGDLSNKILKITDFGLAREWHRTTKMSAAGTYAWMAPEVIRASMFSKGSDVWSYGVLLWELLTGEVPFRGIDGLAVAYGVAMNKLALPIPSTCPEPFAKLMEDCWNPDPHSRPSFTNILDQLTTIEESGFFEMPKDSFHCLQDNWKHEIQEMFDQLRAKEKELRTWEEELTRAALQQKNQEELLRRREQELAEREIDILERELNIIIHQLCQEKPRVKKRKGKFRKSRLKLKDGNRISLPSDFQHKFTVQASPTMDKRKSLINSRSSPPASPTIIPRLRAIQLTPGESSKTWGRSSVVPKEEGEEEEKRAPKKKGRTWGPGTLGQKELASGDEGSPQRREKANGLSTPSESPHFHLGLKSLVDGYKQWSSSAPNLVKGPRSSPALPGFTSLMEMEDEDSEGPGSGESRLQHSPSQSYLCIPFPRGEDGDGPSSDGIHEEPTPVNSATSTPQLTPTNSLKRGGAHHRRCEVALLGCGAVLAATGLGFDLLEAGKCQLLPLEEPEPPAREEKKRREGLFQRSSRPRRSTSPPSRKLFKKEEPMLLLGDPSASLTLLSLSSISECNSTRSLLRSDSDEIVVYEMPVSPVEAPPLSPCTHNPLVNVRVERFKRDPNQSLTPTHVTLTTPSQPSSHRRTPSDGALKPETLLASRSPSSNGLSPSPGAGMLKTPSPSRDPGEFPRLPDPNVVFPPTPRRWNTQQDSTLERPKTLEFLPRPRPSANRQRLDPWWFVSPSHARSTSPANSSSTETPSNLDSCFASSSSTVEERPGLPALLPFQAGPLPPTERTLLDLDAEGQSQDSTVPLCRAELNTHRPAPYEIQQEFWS
Aurora kinase B, sequence (Q96GD4 whole entry, the tested form may be a part): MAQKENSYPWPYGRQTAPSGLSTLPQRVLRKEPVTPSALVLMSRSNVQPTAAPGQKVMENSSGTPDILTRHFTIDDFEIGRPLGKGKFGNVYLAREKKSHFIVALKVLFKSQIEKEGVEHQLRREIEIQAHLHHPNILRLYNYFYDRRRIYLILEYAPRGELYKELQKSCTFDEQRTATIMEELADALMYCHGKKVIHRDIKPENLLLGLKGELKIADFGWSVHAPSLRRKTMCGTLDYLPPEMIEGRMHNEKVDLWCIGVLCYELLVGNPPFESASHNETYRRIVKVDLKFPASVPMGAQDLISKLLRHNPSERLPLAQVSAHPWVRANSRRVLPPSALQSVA

COc1cc2c(-c3cnc(-c4ccc[nH]4)o3)c[nH]c2cc1Br
Activity [1]: 46%
Kd [2]: 2.7 µM
Activity [3]: 100%
Activity [4]: 0%
Activity [5]: 95%
Activity [6]: 70%
IC50 (PLC-PRF-5): 1.5 µM
solubility kinetic at 500 µM [7]: 156 µM (≈ 55.9 µg/mL)
LC50 at 72 h [8]: 1.4 µM
Activity [9]: 100%
Activity [10]: 100%
survival at 72 h, 0.1 µM [11]: 100%
Activity (Aurora kinase B): 6%
Activity [12]: 80%
Activity [13]: 67%
IC50 (MCF7): 0.77 µM
IC50 (MDA-MB-468): 0.34 µM
Activity [14]: 100%
Activity [15]: 21%
Activity [16]: 100%
Activity [17]: 20%
Activity [18]: 100%
Activity [19]: 1.2%
IC50 (BT-20): > 30 µM
Kd [20]: 3.3 µM
remaining at 1 h, 5 µM [21]: 84%
Activity [22]: 26%
survival at 72 h, 14 µM [23]: 5%
